Experimental data from patent publication US20160318856A1, “Substituted Urea eIF2alpha Kinase Activators” (THE BRIGHAM AND WOMEN'S HOSPITAL, INC., priority 2013, published 2016).

Tests used:
Panc-1 = experiment: cell proliferation (SRB) assay, Panc-1; assay type: cell-based; conditions: Homo sapiens, Table 7
Procedure: (§1) Cells were seeded in 96-well plates and maintained for 5 days in the presence of 0.5 to 20 μM of individual compound, and cell proliferation was measured by the sulforhodamine B (SRB) assay as described previously (see, for example, Palakurthi, S. S. et al. Cancer Research 2000, 60(11), 2919-2925). Briefly, at the end of a 5-day treatment, cells were fixed in 10% cold trichloroacetic acid. Cell number was estimated by measuring the remaining bound dye of sulforhodamine B after washing. The percentage of growth was calculated by using the equation: 100×[(T−T0)/(C−T0)], where T and C represent the absorbance in treated and control cultures at Day 5, and T0 at time zero, respectively. If T is less than T0, cell death has occurred and can be calculated from 100×[(T−T0)/T0].
The compounds shown in Table 7 were evaluated using for activation of HRI using the dual luciferase surrogate eIF2α phosphorylation assay (see, for example, Chen, T. et al. Nature Chem Biol 2011, 7, 610-616) and for inhibition of cell proliferation using the SRB assay (see, for example, Palakurthi, S. S. et al. Cancer Res 2000, 60, 2919-2925) as described above.

[1] = test system: eIF2α phosphorylation (eIF2•GTP•Met-tRNAi ternary complex; HRI activation); experiment: surrogate dual luciferase eIF2α phosphorylation (ternary complex) assay; assay type: cell-based, human; conditions: for maximal fold induction: Homo sapiens, DMSO = 1, maximum tested concentration 20 μM, read-out: Emax: Maximum activity of compound expressed as fold over vehicle; for C3X: Calculated concentration of compound that will cause three-fold increase in the surrogate eIF2α phosphorylation assay: Table 7
Excerpt: The dual luciferase expression vector and other plasmids used for these studies were previously described (see, for example, Ziegeler, G. et al. Journal of Biological Chemistry 2010, 285(20), 15408-19). The ternary complex assay, surrogate of eIF2α phosphorylation, has been described elsewhere (see, for example, Chen, T. et al. Nature Chemical Biology 2011, 7(9), 610-6). Briefly, the pBISA vector, which contains seven copies of the tetracycline-regulated transactivator response element (TRE), is flanked on both sides by minimal human cytomegalovirus (CMV) minimal promoters allowing bi-directional transcription and two MCSs (multiple cloning sites). Firefly and renilla luciferases were subcloned into MCS-I and MCS-II, respectively. This plasmid, designated pBISA-DL, transcribes two mRNAs that contain the 90 nucleotide plasmid derived 5′UTR (same sequence in both mRNAs), and the ORF encoding either firefly or renilla luciferase followed by a polyadenylation sequence. This plasmid was further modified by inserting the 5′UTR of ATF-4 mRNA into MCS-I in front of the firefly luciferase mRNA. Transcription from this unit generates an mRNA that contains the firefly luciferase ORF preceded by a 5′UTR composed of 90 nucleotides derived from the plasmid and 267 nucleotides derived from the 5′UTR of ATF-4 mRNA. Transcription from the other unit generates an mRNA that contains the renilla luciferase ORF proceeded only by the 90-nucleotide plasmid-derived sequence in the 5′UTR (pBISA-DL (ATF-4)) (see, for example, Chen, T. et al. Nature Chemical Biology 2011, 7(9), 610-6).
Cells expressing firefly and renilla luciferases were assayed with a dual glow luciferase assay kit, per manufacturer's instruction (Promega Inc., Madison, Wis.). The data calculations were carried out as the ratio of firefly to renilla luciferase signal.
A library of 1900 urea compounds was screened in the surrogate dual luciferase eIF2α phosphorylation (ternary complex) assay. This library was originally assembled and screened for inhibition of sEH by Hammock's group at UC-Davis (see, for example, Chen, T. et al. Nature Chem Biol 2011, 7, 610-616; Ziegeler, G et al. J Biol Chem 2010, 285, 15408-15419). We developed this assay in order to identify compounds that activate HRI, taking advantage of the fact that activated HRI phosphorylates eIF2α thereby reducing the amount of the eIF2•GTP•Met-tRNAi ternary complex that results in inhibition of translation of many mRNAs but paradoxically increases translation of some mRNAs that contain multiple upstream ORF (uORF) in their 5′ untranslated regions (UTRs). In our assay, firefly (F) luciferase mRNA is fused to 5′UTR of activating transcription factor 4 (ATF-4) mRNA that has multiple uORFs while renilla (R) luciferase mRNA is fused to a 5′UTR lacking any uORFs. Compounds that reduce the amount of the ternary complex, such as those activating HRI, would increase F luciferase expression while decreasing the R luciferase expression, resulting in an increased F/R luciferase ratio. To calculate the activity scores, the F/R ratios for every compound-treated wells were normalized to vehicle-treated (DMSO) wells that was arbitrarily set at 1 (F/R=1).

[2] = test system: CRL-2813 human melanoma cancer cells; experiment: cell proliferation (SRB) assay, CRL-2813; assay type: cell-based; conditions: Homo sapiens, CRL2813; SRB assay, Table 7; read-out: IC50 CRL-2813
Procedure: as §1

Compound	IC50 (Panc-1)	IC50 [2]	maximal fold induction [1]	C3X: Calculated concentration of compound that will cause three-fold increase in the surrogate eIF2α phosphorylation assay [1]
O=C(Nc1cc(C(F)(F)F)cc(C(F)(F)F)c1)N[C@H]1CC[C@H](Oc2ccc(C(F)(F)F)cc2)CC1	0.7 µM	0.15 µM	38	0.15 µM
N#Cc1cccc(NC(=O)N[C@H]2CC[C@H](Oc3ccc(C(F)(F)F)cc3)CC2)c1	2.5 µM	0.8 µM	10	2 µM
O=C(Nc1cccc(C(F)(F)F)c1)N[C@H]1CC[C@H](Oc2ccc(C(F)(F)F)cn2)CC1	2.8 µM	1.5 µM	6	3.5 µM
N#Cc1ccc(O[C@H]2CC[C@H](NC(=O)Nc3cccc(C(F)(F)F)c3)CC2)cc1	3 µM	4 µM	4	5 µM

Further compounds by falling IC50 (Panc-1), results first:

IC50 (Panc-1)	IC50 [2]	Compound	maximal fold induction [1]	C3X: Calculated concentration of compound that will cause three-fold increase in the surrogate eIF2α phosphorylation assay [1]
3 µM	2.1 µM	O=C(Nc1cccc(C(F)(F)F)c1)N[C@H]1CC[C@H](Oc2ccc(F)cc2)CC1	11	2.5 µM
2 µM	0.9 µM	N#Cc1ccc(NC(=O)N[C@H]2CC[C@H](Oc3ccc(C(F)(F)F)cc3)CC2)cc1	9	0.6 µM
1.8 µM	1.3 µM	N#Cc1cc(C(F)(F)F)ccc1O[C@H]1CC[C@H](NC(=O)Nc2cccc(C(F)(F)F)c2)CC1	8	2.5 µM
